Results published in patent publication EP3708565A1, “PYRIMIDINYLOXYPHENYLAMIDINES AND THE USE THEREOF AS FUNGICIDES” (Bayer AG, priority 2020, dated 2020).

What was measured:
Puccinia recondita = experiment: in vivo preventive test on Puccinia recondita (brown rust on wheat); conditions: for pest or weed control at 500 ppm: Puccinia recondita, 264 h, 500 ppm of active ingredient, young wheat plants sprayed, inoculated after 24 hours, evaluated 11 days after the inoculation, read-out: efficacy; for efficacy: 500 ppm
Description: Example: in vivo preventive test on Puccinia recondita (brown rust on wheat)
(§1) The active ingredients were made soluble and homogenized in a mixture of Dimethyl sulfoxide/Acetone/ /Tween® 80 and then diluted in water to the desired concentration.
The young plants of wheat were treated by spraying the active ingredient prepared as described above. Control plants were treated only with an aqueous solution of Acetone/Dimethyl sulfoxide/ Tween® 80.
After 24 hours, the plants were contaminated by spraying the leaves with an aqueous suspension of Puccinia recondita spores. The contaminated wheat plants were incubated for 24 hours at 20°C and at 100% relative humidity and then for 10 days at 20°C and at 70-80% relative humidity.
The test was evaluated 11 days after the inoculation. 0% means an efficacy which corresponds to that of the control plants while an efficacy of 100% means that no disease was observed.

Sphaerotheca fuliginea = experiment: in vivo preventive test on Sphaerotheca fuliginea (powdery mildew on cucurbits); conditions: 500 ppm of active ingredient, young gherkin plants sprayed, inoculated after 24 hours, evaluated 8 days after the inoculation; for pest or weed control at 500 ppm: Podosphaera fuliginea, 192 h, read-out: efficacy
Description: Example: in vivo preventive test on Sphaerotheca fuliginea (powdery mildew on cucurbits)
as §1
The young plants of gherkin were treated by spraying the active ingredient prepared as described above. Control plants were treated only with an aqueous solution of Acetone/Dimethyl sulfoxide/ […].
After 24 hours, the plants were contaminated by spraying the leaves with an aqueous suspension of Sphaerotheca fuliginea spores. The contaminated gherkin plants were incubated for 8 days at 20°C and at 70-80% relative humidity.
The test was evaluated 8 days after the inoculation. 0% means an efficacy which corresponds to that of the control plants while an efficacy of 100% means that no disease was observed.

[1] = LogP measurement by HPLC on reversed phase columns (EEC directive 79/831 Annex V.A8); format: physicochemical
Description: If more than one LogP value is available within the same method, all the values are given and separated by "+".
Lambda-max-values were determined using UV-spectra from 200 nm to 400 nm and the peak values of the chromatographic signals.

Phakospora pachyrhizi = experiment: in vivo preventive test on Phakospora pachyrhizi (soybean rust); conditions: for pest or weed control at 500 ppm: Glycine max, 288 h, 500 ppm of active ingredient, young soybean plants sprayed, inoculated after 24 hours, evaluated 12 days after the inoculation, read-out: efficacy; for efficacy: 500 ppm
Description: Example: in vivo preventive test on Phakospora pachyrhizi (soybean rust)
as §1
The young plants of soybean were treated by spraying the active ingredient prepared as described above. Control plants were treated only with an aqueous solution of Acetone/Dimethyl sulfoxide/ […].
After 24 hours, the plants were contaminated by spraying the leaves with an aqueous suspension of Phakosporapachyrhizi spores. The contaminated soybean plants were incubated for 24 hours at 24°C and at 100% relative humidity and then for 11 days at 24°C and at 70-80% relative humidity.
The test was evaluated 12 days after the inoculation. 0% means an efficacy which corresponds to that of the control plants while an efficacy of 100% means that no disease was observed.

[2] = reversed phase HPLC column, method [a]: LC-UV, acidic range, 0.1% formic acid in water and acetonitrile as eluent
[3] = reversed phase HPLC column, method [b]: LC-UV, neutral range, 0.001 molar ammonium acetate solution in water and acetonitrile as eluent
[4] = method [a]: LC-UV, acidic range, 0.1% formic acid in water and acetonitrile as eluent
[5] = method [b]: LC-UV, neutral range, 0.001 molar ammonium acetate solution in water and acetonitrile as eluent

Row | chromatographic logP [1, 2] | chromatographic logP [1, 3] | chromatographic logP [1, 4] | chromatographic logP [1, 5] | Compound | pest or weed control at 500 ppm (Puccinia recondita) [%] | pest or weed control at 500 ppm (Sphaerotheca fuliginea) [%] | pest or weed control at 500 ppm (Phakospora pachyrhizi) [%] | efficacy (Puccinia recondita) | efficacy (Sphaerotheca fuliginea) | efficacy (Phakospora pachyrhizi)
1 | 1.66 | 4.94 | – | – | CCN(C)C=Nc1cc(C)c(Oc2ccnc(/C=C/C(C)(C)C)n2)cc1C [I.034, N'-[4-[2-[(E)-3,3-dimethylbut-1-enyl]pyrimidin-4-yl]oxy-2,5-dimethylphenyl]-N-ethyl-N-methylmethanimidamide] | ≥ 70 | ≥ 70 | ≥ 70 | – | – | –
2 | 1.55 | – | – | – | CCCSc1nccc(Oc2cc(C)c(N=CN(C)CC)cc2C(F)F)n1 [I.036, N'-[5-(difluoromethyl)-2-methyl-4-(2-propylsulfanylpyrimidin-4-yl)oxyphenyl]-N-ethyl-N-methylmethanimidamide] | ≥ 70 | ≥ 70 | ≥ 70 | – | – | –
3 | 1.69 | 4.8 | – | – | CCN(C)C=Nc1cc(Br)c(Oc2ccnc(Sc3ccccc3)n2)cc1C [I.037, N'-[5-bromo-2-methyl-4-(2-phenylsulfanylpyrimidin-4-yl)oxyphenyl]-N-ethyl-N-methylmethan-imidamide] | ≥ 70 | ≥ 70 | ≥ 70 | – | – | –
4 | – | – | 1.52 | 4.55 | CCN(C)C=Nc1cc(C)c(Oc2ccnc(Sc3ccccc3)n2)cc1C [I.039, N'-[2,5-dimethyl-4-(2-phenylsulfanylpyrimidin-4-yl)oxyphenyl]-N-ethyl-N-methylmethanimid-amide] | – | – | – | at least 70% | at least 70% | at least 70%
5 | 1.55 | – | – | – | CCN(C)C=Nc1cc(C)c(Oc2ccnc(SCC3CC3)n2)cc1C [I.040, N'-[4-[2-(cyclopropylmethylsulfanyl)pyrimidin-4-yl]oxy-2,5-dimethylphenyl]-N-ethyl-N-methylmethanimidamide] | ≥ 70 | ≥ 70 | ≥ 70 | – | – | –
6 | – | – | 1.6 | 4.67 | CCN(C)C=Nc1cc(C)c(Oc2ccnc(OC3CCCC3)n2)cc1C [I.041, N'-[4-(2-cyclopentyloxypyrimidin-4-yl)oxy-2,5-dimethylphenyl]-N-ethyl-N-methylmethanimid-amide] | – | – | – | at least 70% | at least 70% | at least 70%
7 | – | – | 1.63 | 4.82 | CCN(C)C=Nc1cc(C)c(Oc2ccnc(SCc3ccccc3)n2)cc1C [I.042, N'-[4-(2-benzylsulfanylpyrimidin-4-yl)oxy-2,5-dimethylphenyl]-N-ethyl-N-methylmethanimid-amide] | – | – | – | at least 70% | at least 70% | at least 70%
8 | – | – | 1.41 | 4.29 | CCN(C)C=Nc1cc(C#N)c(Oc2ccnc(C(C)(C)C)n2)cc1C [I.044, N'-[4-(2-tert-butylpyrimidin-4-yl)oxy-5-cyano-2-methylphenyl]-N-ethyl-N-methylmethanimid-amide] | – | – | – | at least 70% | at least 70% | at least 70%
9 | 1.63 | 4.5 | – | – | CCN(C)C=Nc1cc(C)c(Oc2ccnc(SC(C)(C)C)n2)cc1Cl [I.045, N'-[4-(2-tert-butylsulfanylpyrimidin-4-yl)oxy-2-chloro-5-methylphenyl]-N-ethyl-N-methyl-methanimidamide] | ≥ 70 | ≥ 70 | ≥ 70 | – | – | –

Row | Compound | chromatographic logP [1, 2] | chromatographic logP [1, 3] | chromatographic logP [1, 4] | chromatographic logP [1, 5] | pest or weed control at 500 ppm (Puccinia recondita) [%] | pest or weed control at 500 ppm (Sphaerotheca fuliginea) [%] | pest or weed control at 500 ppm (Phakospora pachyrhizi) [%] | efficacy (Puccinia recondita) | efficacy (Sphaerotheca fuliginea) | efficacy (Phakospora pachyrhizi)
10 | CCN(C)C=Nc1cc(C)c(Oc2ccnc(SCC[Si](C)(C)C)n2)cc1C [I.043, N'-[2,5-dimethyl-4-[2-(2-trimethylsilylethylsulfanyl)pyrimidin-4-yl]oxyphenyl]-N-ethyl-N-methylmethanimidamide] | – | – | 2.17 | – | ≥ 70 | ≥ 70 | ≥ 70 | – | – | –
